In patent US6800612B2, “S-nitrosothiols as agents for the treatment of circulatory dysfunctions” (Lacer, S.A., priority 2000, dated 2004):
Where two headings read alike, the source gives them in different places. Blank lines part the entries; values can stand above or below the compound they belong to.

Assays:
arterial ring = assay: Tests for in vitro vasodilatation (arterial rings contracted with 1 μM Norepinephrine); assay type: cell-based; details: for EC50: vasodilatation of 50% of arterial ring previously contracted with 1 μM Norepinephrine, 6 to 9 rings, read-out: CE50 (average ± SD), vasodilatation
Protocol: Tests for In Vitro Vasodilatation. The method used in the assays is substantially the same as described in the following references: Furchgot, R. F. “Methods in nitric oxide research”. Feelisch & Stamler eds. John Wiley &Sons, Chichester, England, pp 567-581. Trongvanichnam, K, et al. Jpn J. […]., et al. Eur. J. Pharmacol. 1994; 258:47-55. The compounds are tested at 5 different concentrations, at a concentration range from 0,001 y 10 mM, using from 6 to 9 arterial rings for each compound. The obtained results are compared to those from the S-nitrosoglutathione (GSNO), which is used as reference product.

platelets = assay: Tests in vitro of the inhibition of the aggregation of the platelets (collagen 1 μg/mL); assay type: cell-based, human; details: for IC50: aggregation obtained with sub-maximal collagen concentration (1 μg/mL), read-out: IC50 (average ± SD), inhibition of the aggregation of the platelets; for inhibiting activity on platelets aggregation compared to the reference compound (GSNO): in words
Text: Tests In Vitro of the Inhibition of the Aggregation of the Platelets. The method used in the assays is substantially the same as described in following references: Loscalzo J, et al. En: Methods in nitric oxide research (Feelisch M, Stamler JS, eds.) John Wiley & Sons, Chichester, England, pp 583-591. Radomski MW, et al. Br J Pharmacol 1987;92:181-187. […], et al. Br J Pharmacol 1994;112:1071-1076. […] The obtained results are compared to those from the S-nitrosoglutathione (GSNO), which is used as reference product.

[1] = system: human washed platelet preparations; assay: Test in vitro of the blockage of platelet aggregation inhibition by ODQ; assay type: cell-based; details: for inhibition at 0.1 µM / inhibition at 0.3 µM / inhibition at 1 µM: Homo sapiens, Platelet; for inhibition at 1 µM: 1 μM compound; for blocking of the inhibiting effect by ODQ: IC50 dose of the compounds
Protocol: Test In Vitro of the Blockage of Platelet Aggregation Inhibition. The method used in the test is substantially the same as described in the references cited in example 8, completed with the reference: Moro MA, et al. Pr Nat Acad Sc USA. 1996 ;93:1480-5. The ODQ is tested in vitro to block the inhibition of platelet aggregation reached by the obtained products in human washed platelet preparations. […] The obtained results are compared to those from the GSNO (reference product) and with the values in absence of ODQ.

human washed platelets = assay: Tests in vitro of the increase of the intra-platelet levels of GMPc; assay type: cell-based; details: for GMPc intra-platelet level: human washed platelets
Text: Tests In Vitro of the Increase of the Intra-platelet Levels of GMPc. […] The method used in the test is substantially the same as described in the references cited in example 8. […] The obtained results are compared to those from the GSNO (reference product) and with the basal values.

- EC50 (arterial ring): 1560 ± 550 nM
- IC50 (platelets; Homo sapiens, Platelet): 480 ± 190 nM
Compound: N[C@@H](CCC(=O)N[C@@H](CSN=O)C(=O)NCC(=O)O)C(=O)O [GSNO, S-nitrosoglutathione, reference compound]
- inhibition at 0.1 µM ([1]; 0.1 μM compound, ODQ 1 μM, read-out: % inhibition with ODQ): 0%
- inhibition at 0.1 µM ([1]; 0.1 μM compound, inhibition of the maximum aggregation, read-out: % inhibition without ODQ): 34.2 ± 25%
- inhibition at 0.3 µM ([1]; 0.3 μM compound, ODQ 1 μM, read-out: % inhibition with ODQ): 3.3 ± 3%
- inhibition at 0.3 µM ([1]; 0.3 μM compound, inhibition of the maximum aggregation, read-out: % inhibition without ODQ): 79.3 ± 17%
- inhibition at 1 µM ([1]; ODQ 1 μM, read-out: % inhibition with ODQ): 32.6 ± 0.9%
- inhibition at 1 µM ([1]; inhibition of the maximum aggregation, read-out: % inhibition without ODQ): 92.65 ± 0.9%
- blocking of the inhibiting effect by ODQ ([1]; ODQ 1 μM, in words): capable of blocking the inhibiting effect
- GMPc intra-platelet level (human washed platelets; 0.1 μM compound): 1 ± 0.5 pmol/10^9 platelets
- GMPc intra-platelet level (human washed platelets; 0.3 μM compound): 6.6 ± 0.6 pmol/10^9 platelets
- GMPc intra-platelet level (human washed platelets; 1 μM compound): 24 ± 0.5 pmol/10^9 platelets
- GMPc intra-platelet level (human washed platelets; 3 μM compound): 27.6 ± 6.0 pmol/10^9 platelets

Compound: CC(=O)NC(C(=O)O)C1(SN=O)CCOCC1 (stereo not drawn) [Product obtained in example 1, N-acetyl-2-amino-2-[4-(4-S-Nitro-somercaptotetrahydropyran) ] Acetic Acid]
- EC50 (arterial ring): 375 ± 50 nM
- IC50 (platelets): 70 ± 20 nM
- inhibiting activity on platelets aggregation compared to the reference compound (GSNO) (platelets): highly superior to that of the reference product

Compound: CC(=O)NC(C(=O)O)C1(SN=O)CCN(C)CC1 (stereo not drawn) [Product obtained in example 2, N-acetyl-2-amino-2-[4-(4-S-nitro-somercapto-1-methylpiperidin)] Acetic Acid]
- vasodilating activity compared to the reference compound (GSNO) (arterial ring; in words): highly superior to that of the reference product
- EC50 (arterial ring): 24 ± 3 nM
- IC50 (platelets): 190 ± 20 nM

Compound: CC(=O)NC(C(=O)O)C(Cc1ccccc1)(Cc1ccccc1)SN=O (stereo not drawn) [Product obtained in example 3, N-acetyl-2-amino-3-benzyl-3-S-ni-trosomercapto-4-phenyl-butanoic Acid]
- EC50 (arterial ring): 630 ± 210 nM
- IC50 (platelets): 240 ± 27 nM

Compound: N[C@@H](CCC(=O)NC(C(=O)NCC(=O)O)C(Cc1ccccc1)(Cc1ccccc1)SN=O)C(=O)O (stereo partly drawn) [Product obtained in example 6, N[N-γ-L-glutamyl-2-amino-3-benzyl-3-(S-nitrosomercapto)-4-phenylbutanoyl] glycine]
- IC50 (platelets): 350 ± 110 nM

Compound: N[N-γ-L-glutamyl-2-amino-2-(4-(4-S-nitrosomercapto-1-methyl-piperidin))acetyl ] glycine [Product obtained in example 5]
- EC50 (arterial ring): 1890 ± 820 nM
- IC50 (platelets): 47 ± 11 nM
- inhibiting activity on platelets aggregation compared to the reference compound (GSNO) (platelets): highly superior to that of the reference product
- % inhibition with ODQ ([1]; 0.003 μM compound, ODQ 1 μM): 0%
- % inhibition without ODQ ([1]; 0.003 μM compound, inhibition of the maximum aggregation): 0%
- % inhibition with ODQ ([1]; 0.01 μM compound, ODQ 1 μM): 0%
- % inhibition without ODQ ([1]; 0.01 μM compound, inhibition of the maximum aggregation): 17%
- % inhibition with ODQ ([1]; 0.03 μM compound, ODQ 1 μM): 0%
- % inhibition without ODQ ([1]; 0.03 μM compound, inhibition of the maximum aggregation): 83 ± 1.4%
- % inhibition with ODQ ([1]; 0.1 μM compound, ODQ 1 μM): 0%
- % inhibition without ODQ ([1]; 0.1 μM compound, inhibition of the maximum aggregation): 96%
- % inhibition with ODQ ([1]; 0.3 μM compound, ODQ 1 μM): 0%
- % inhibition without ODQ ([1]; 0.3 μM compound, inhibition of the maximum aggregation): 96%
- blocking of the inhibiting effect by ODQ ([1]; ODQ 1 μM, in words): capable of blocking the inhibiting effect
- blocking of the inhibition of aggregation by ODQ compared to the reference product ([1]; ODQ 1 μM, at higher doses to that of the IC50, in words): better blocked
- GMPc intra-platelet level (human washed platelets; 0.03 μM compound): 1.60 ± 0.5 pmol/10^9 platelets
- GMPc intra-platelet level (human washed platelets; 0.1 μM compound): 1.50 ± 0.4 pmol/10^9 platelets
- GMPc intra-platelet level (human washed platelets; 0.3 μM compound): 6.50 ± 0.5 pmol/10^9 platelets
- GMPc intra-platelet level (human washed platelets; 1 μM compound): 21.1 ± 0.5 pmol/10^9 platelets
- increase of intra-platelet levels of GMPc compared to GSNO (human washed platelets; in words): in a similar manner to that of the GSNO reference
- levels of GMPc at concentrations close to the IC50, compared to GSNO (human washed platelets; values close to the IC50, in words): lower as that of the GSNO

Compound: N[N-γ-L-glutamyl-2-amino-2-(4-(4—S—nitrosomercapto)tetrahydropyran)) acetyl]glycine [Product obtained in example 4]
- EC50 (arterial ring): 1730 ± 270 nM
- IC50 (platelets): 200 ± 120 nM
